This note sets out measurements from paper PMC2803217 (Journal of Experimental Botany, 2009).

In one data set the target is T1, AtPMT1 (Arabidopsis thaliana, UniProt Q9XIH7).
T1 sequence (Q9XIH7 1-511): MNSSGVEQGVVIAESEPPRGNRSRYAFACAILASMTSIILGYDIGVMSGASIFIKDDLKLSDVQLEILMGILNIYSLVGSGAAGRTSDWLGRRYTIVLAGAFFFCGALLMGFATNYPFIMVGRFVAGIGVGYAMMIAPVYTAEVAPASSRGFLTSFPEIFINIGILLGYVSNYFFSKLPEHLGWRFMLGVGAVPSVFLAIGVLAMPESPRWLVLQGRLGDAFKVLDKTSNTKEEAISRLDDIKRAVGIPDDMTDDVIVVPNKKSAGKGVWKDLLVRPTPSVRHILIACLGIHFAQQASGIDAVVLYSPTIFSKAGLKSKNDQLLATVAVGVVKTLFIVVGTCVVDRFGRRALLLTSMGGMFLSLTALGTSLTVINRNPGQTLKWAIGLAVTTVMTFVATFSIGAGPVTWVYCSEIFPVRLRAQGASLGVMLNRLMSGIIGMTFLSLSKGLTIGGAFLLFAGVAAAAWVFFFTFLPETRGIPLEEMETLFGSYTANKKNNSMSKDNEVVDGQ
Nature of the data set: competition of […]-sorbitol uptake in transgenic yeast. Type of data set: cell-based. The settings on record: pH 5.0.

The target of the next data set is T2, AtPMT2 (Arabidopsis thaliana, UniProt Q9XIH6).
T2 sequence (Q9XIH6 1-511): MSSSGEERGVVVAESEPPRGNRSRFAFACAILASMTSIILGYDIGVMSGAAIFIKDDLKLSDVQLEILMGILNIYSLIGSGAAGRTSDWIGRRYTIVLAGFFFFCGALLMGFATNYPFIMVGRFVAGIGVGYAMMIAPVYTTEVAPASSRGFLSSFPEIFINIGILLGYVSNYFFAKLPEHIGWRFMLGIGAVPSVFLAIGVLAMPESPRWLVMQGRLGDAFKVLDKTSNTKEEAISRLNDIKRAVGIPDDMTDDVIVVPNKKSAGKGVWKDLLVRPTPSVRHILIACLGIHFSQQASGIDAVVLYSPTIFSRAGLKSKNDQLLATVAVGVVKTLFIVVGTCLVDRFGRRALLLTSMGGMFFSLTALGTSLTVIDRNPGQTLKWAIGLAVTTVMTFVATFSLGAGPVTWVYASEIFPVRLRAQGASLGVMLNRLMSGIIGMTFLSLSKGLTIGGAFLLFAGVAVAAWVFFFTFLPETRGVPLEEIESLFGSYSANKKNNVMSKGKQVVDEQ
The data set is described as above. Type of data set: cell-based. The settings on record: pH 5.0.

Substrate in data set [1]: OC[C@@H](O)[C@H](O)[C@@H](O)CO
Nature of the data set: cells, lysate or membranes. The settings on record: 50 mM sodium phosphate pH 5.0, H+ symport.

Substrate in data set [2]: OC[C@@H](O)[C@@H](O)[C@H](O)[C@@H](O)CO
The experiment in a line: cells, lysate or membranes. The settings on record: 50 mM sodium phosphate pH 5.0, H+ symport.

Consider `OC[C@@H](O)[C@@H](O)CO` [erythritol], for which the “uptake of 0.1 mM 14C-sorbitol with 10 mM competitor” value on AtPMT1 is recorded as “In both strains, uptake of sorbitol was strongly reduced in the presence of xylitol”; on AtPMT2 (10 mM competitor) it was “In both strains, uptake of sorbitol was strongly reduced in the presence of xylitol”. Consider `OC[C@@H](O)[C@@H](O)[C@H](O)[C@@H](O)CO` [sorbitol], for which, at AtPMT2 (10 mM unlabelled sorbitol), the “uptake of 0.1 mM 14C-sorbitol with 10 mM competitor” value is given as “sorbitol was transported by both cell lines”.

B1: AtPMT2 (Arabidopsis thaliana) (protein)
chain: MSSSGEERGVVVAESEPPRGNRSRFAFACAILASMTSIILGYDIGVMSGAAIFIKDDLKLSDVQLEILMGILNIYSLIGSGAAGRTSDWIGRRYTIVLAGFFFFCGALLMGFATNYPFIMVGRFVAGIGVGYAMMIAPVYTTEVAPASSRGFLSSFPEIFINIGILLGYVSNYFFAKLPEHIGWRFMLGIGAVPSVFLAIGVLAMPESPRWLVMQGRLGDAFKVLDKTSNTKEEAISRLNDIKRAVGIPDDMTDDVIVVPNKKSAGKGVWKDLLVRPTPSVRHILIACLGIHFSQQASGIDAVVLYSPTIFSRAGLKSKNDQLLATVAVGVVKTLFIVVGTCLVDRFGRRALLLTSMGGMFFSLTALGTSLTVIDRNPGQTLKWAIGLAVTTVMTFVATFSLGAGPVTWVYASEIFPVRLRAQGASLGVMLNRLMSGIIGMTFLSLSKGLTIGGAFLLFAGVAVAAWVFFFTFLPETRGVPLEEIESLFGSYSANKKNNVMSKGKQVVDEQ
By Km is commonly meant the substrate concentration at which the rate is half of its maximum. On to B1, for which the Km in data set [1] was 180 ± 10 µM.

B2: AtPMT1 (Arabidopsis thaliana) (protein)
chain: MNSSGVEQGVVIAESEPPRGNRSRYAFACAILASMTSIILGYDIGVMSGASIFIKDDLKLSDVQLEILMGILNIYSLVGSGAAGRTSDWLGRRYTIVLAGAFFFCGALLMGFATNYPFIMVGRFVAGIGVGYAMMIAPVYTAEVAPASSRGFLTSFPEIFINIGILLGYVSNYFFSKLPEHLGWRFMLGVGAVPSVFLAIGVLAMPESPRWLVLQGRLGDAFKVLDKTSNTKEEAISRLDDIKRAVGIPDDMTDDVIVVPNKKSAGKGVWKDLLVRPTPSVRHILIACLGIHFAQQASGIDAVVLYSPTIFSKAGLKSKNDQLLATVAVGVVKTLFIVVGTCVVDRFGRRALLLTSMGGMFLSLTALGTSLTVINRNPGQTLKWAIGLAVTTVMTFVATFSIGAGPVTWVYCSEIFPVRLRAQGASLGVMLNRLMSGIIGMTFLSLSKGLTIGGAFLLFAGVAAAAWVFFFTFLPETRGIPLEEMETLFGSYTANKKNNSMSKDNEVVDGQ
Regarding B2, the Michaelis constant (Km) in data set [2] amounted to 770 ± 120 µM; in data set [1] it was 140 ± 20 µM.
